According to patent US9682060B2, “Small molecules that induce intrinsic pathway apoptosis” (The Board of Trustees of the University of Illinois, priority 2015, dated 2017):

Tests used:
4T1 breast cancer = experiment: Syngeneic subcutaneous tumor model; type: in vivo, BALB/c mice; conditions: 4T1 model; 20 mg/kg IP once daily for 4 days
Description: All animal studies were performed with prior approval by the University of Illinois at Urbana-Champaign IACUC committee. […]. Seven days (for B16-F10) and six days (for 4T1) after inoculation, the mice were randomized based upon tumor size with 7 mice per group. Vehicle or compound was administered intraperitoneally as a corn oil DMSO suspension (300 μL of 10% DMSO in trans fat-free corn oil, 20 mg/kg) once daily for 3 consecutive days for B16-F10 and 4 consecutive days for 4T1 models. Tumor measurements were performed every other day using a caliper and tumor volume was calculated using the equation (0.5×l×w^2).

[1] = Pharmacokinetic profiling in mice; type: in vivo, C57BL/6 mice; conditions: 37.5 mg/kg intravenously
Description: Pharmacokinetics and Toxicity Profiling in Mice.
All animal studies were performed with prior approval by the University of Illinois at Urbana-Champaign IACUC committee. Eight week old female C57BL/6 mice were used for all pharmacokinetic and toxicity experiments. […]. For toxicity assessment, Raptinal was administered intravenously as a single-dose injection across a dose range of 15-60 mg/kg, and mice were sacrificed 7 days post-injection for evidence of hematologic toxicity (n=3 mice/group).

Work on `O=CC1(C2(C=O)c3ccccc3-c3ccccc32)c2ccccc2-c2ccccc21` [Raptinal, [9,9′]bifluorenyl-9,9′-dicarbaldehyde] yielded a growth inhibition (4T1 breast cancer) of 50%, a peak plasma concentration [1] of 134.5 ± 2.2 µM and a peak plasma concentration ([1]; mean ± SD, n=3) of 54.4 ± 0.9 µg/mL. For the same molecule, the half-life ([1]; female, C57BL/6, mouse, in vivo, iv, mean ± SD, n=3, read-out: elimination half-life) was 92.1 ± 5.8 min.
